Assay in all cases: NCI anticancer screen, dose series, 48 h
The test system of assay [1] is MDA-MB-435.
Assay [2] concerns KM20L2 colon.
The subject of assay [3] is BT-549 breast.
For assay [4], the system named is DMS 273 small cell lung.
The test system of assay [5] is XF 498 CNS.
The subject of assay [6] is HOP-18 NSCLC.
The test system of assay [7] is LXFL 529 NSCLC.
The subject of assay [8] is HS 578T breast.

“And” between values parts separate entries of the source, which are not always exact repeats. Equal values may be shown once.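 Tested at 5 concentrations; 48 h exposure; 96-well plates; endpoints linearly interpolated, else capped at highest concentration. Here, GI50 denotes the concentration required for 50% inhibition of growth. TGI is the concentration that stops growth completely.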 A value given as a limit tells only on which side of the number the result lay.

As to `COC1C(C)OC(OC2CC(C)(O)Cc3cc4c(c(O)c32)C(=O)c2c(O)cc3c(c2C4=O)OC2OC3(C)C(O)C(N(C)C)C2O)C(OC)C1(C)OC` (configuration not stated), the TGI is 3.06 nM in assay [1]; 571 nM and 1600 nM in assay [2]; 6.55 nM in assay [3]; 557 nM and 137 nM in assay [4]; 292 nM and 48.3 nM in assay [5]; 0.919 µM and 3.11 µM in assay [6]. Also, the values for the TGI in assay [7] and in assay [8] were 2.84 µM and 0.563 nM, respectively. For the same molecule, the GI50 in assay [2] is 65.1 nM; in assay [4] it was 29.8 nM; in assay [5], 30 nM; in assay [6] it was 157 nM.
`N/C(=N/N=C/c1cccc(F)c1)NO`: the TGI in assay [2] was over 100000 nM; in assay [4], over 100000 nM; in assay [5], over 100000 nM; in assay [6], over 100 µM; in assay [7], over 100 µM.
As to `Cn1c2c(c3ccccc31)CCN(CCCN1CCN(c3ccccc3)CC1)C2=O`, the TGI was found to be 25400 nM in assay [2]; 52400 nM in assay [4]; 27800 nM in assay [5]; 32.9 µM in assay [6]; 36.3 µM in assay [7].

The record behind these values is PubChem BioAssay (NCI).
